From PubChem BioAssay (NCI)
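How tested: cells in 96-well plates exposed to compound for 48 hours at five concentrations. TGI: total growth inhibition.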

Assays:
Assay in all cases: DTP human tumour cell line panel, 48 h
[1] = tested on: 786-0 renal
[2] = tested on: CCRF-CEM leukemia
[3] = tested on: COLO 205 colon
[4] = tested on: DU-145 prostate
[5] = tested on: HCT-15 colon
[6] = tested on: MCF7 breast
[7] = tested on: NCI-H226 lung
[8] = tested on: NCI-H460 lung
[9] = tested on: NCI/ADR-RES ovarian
[10] = tested on: OVCAR-4 ovarian
[11] = tested on: OVCAR-5 ovarian
[12] = tested on: SF-295 CNS
[13] = tested on: SK-MEL-2 melanoma
[14] = tested on: SK-MEL-28 melanoma
[15] = tested on: SK-OV-3 ovarian
[16] = tested on: SN12C renal
[17] = tested on: SW-620 colon
[18] = tested on: T-47D breast
[19] = tested on: UO-31 renal

SMILES | TGI [1] | TGI [2] | TGI [3] | TGI [4] | TGI [5] | TGI [6] | TGI [7] | TGI [8] | TGI [9] | TGI [10] | TGI [11] | TGI [12] | TGI [13] | TGI [14] | TGI [15] | TGI [16] | TGI [17] | TGI [18] | TGI [19]
CC(OCc1ccccc1)C(NC(=O)C1CSSCC(NC(=O)C(Cc2ccccc2)NC(=O)OCc2ccccc2)C(=O)NC(Cc2ccccc2)C(=O)NC(Cc2cn(C=O)c3ccccc23)C(=O)NC(CCCCNC(=O)OCc2ccccc2)C(=O)NC(C(C)OCc2ccccc2)C(=O)N1)C(N)=O (stereo unspecified) | > 86.9 µM | > 100 µM | 10.5 µM | > 100 µM | > 100 µM | 41.1 µM | > 100 µM | > 61.8 µM | > 100 µM | > 79.3 µM | > 100 µM | > 100 µM | 28.7 µM | > 100 µM | > 100 µM | > 100 µM | > 54.5 µM | > 63.8 µM | > 100 µM
COc1ccc(-n2c(=O)n(C)c(=O)n2-c2c(C)c(C)c(C)c(C)c2C)cc1 | > 100 µM | > 100 µM | > 100 µM | > 100 µM | > 100 µM | > 100 µM | > 100 µM | > 100 µM | > 100 µM | > 100 µM | > 100 µM | > 100 µM | > 100 µM | > 100 µM | > 100 µM | > 100 µM | > 100 µM | > 100 µM | > 100 µM
O=C(O)c1cc(N(Cc2ccccc2O)Cc2cc(O)ccc2O)ccc1O | > 100 µM | > 100 µM | > 100 µM | > 100 µM | > 100 µM | > 100 µM | > 100 µM | > 100 µM | > 100 µM | > 100 µM | > 100 µM | > 100 µM | > 100 µM | > 100 µM | > 100 µM | > 100 µM | > 100 µM | > 100 µM | > 100 µM
O=c1c2ncn(CCCl)c2n(-c2ccccc2)c(=S)n1-c1ccccc1 | > 100 µM | > 100 µM | > 100 µM | > 100 µM | > 100 µM | > 100 µM | > 100 µM | > 100 µM | > 100 µM | > 100 µM | > 100 µM | > 100 µM | > 100 µM | > 100 µM | > 100 µM | > 100 µM | > 100 µM | > 100 µM | > 100 µM
NC(N)=NS(=O)(=O)c1ccc(NNc2c3ccccc3nc3c(C(=O)Nc4ccc(S(N)(=O)=O)cc4)cccc23)cc1 | > 100 µM | 88.7 µM | > 100 µM | > 100 µM | > 100 µM | 70.5 µM | > 100 µM | > 100 µM | > 100 µM | > 100 µM | > 100 µM | > 100 µM | 46.9 µM | > 100 µM | > 100 µM | > 100 µM | > 100 µM | > 100 µM | > 100 µM
CC(C)(C)c1cc(C(C)(C)C)c2sc(=S)oc2c1O | 22.6 µM | > 27 µM | 29.6 µM | 25.5 µM | 17.8 µM | 27.4 µM | 34.2 µM | 18.2 µM | 24.4 µM | 26.2 µM | 20.2 µM | 23.5 µM | 24.3 µM | 27.6 µM | 32.8 µM | 19.7 µM | > 46.7 µM | 20.6 µM | 16.2 µM
COc1ccc2c(c1)CC[C@@H]1[C@@H]2CC[C@]2(C)[C@@H](O)/C(=C/c3ccncc3)C[C@@H]12 | 31.7 µM | 81 µM | 16 µM | 41 µM | 23.6 µM | 30.2 µM | 44.7 µM | 27.3 µM | 37.2 µM | > 100 µM | 30.7 µM | 29.4 µM | 31.1 µM | 35.5 µM | 49.4 µM | 61.3 µM | 24.8 µM | 28.9 µM | 31.5 µM
CC1OC(OC2C(O[C@@H]3C[C@@H]4CC[C@@H]5[C@H](CC[C@]6(C)[C@@H]7[C@H](C[C@@H]56)O[C@]5(CC[C@@H](C)CO5)[C@H]7C)[C@@]4(C)C[C@H]3O)OC(CO)C(OC3OC(CO)C(O)C(O)C3O)C2O)C(O)C(O)C1O (stereo partly specified) | 3.32 µM | 3.72 µM | 3.12 µM | 4.29 µM | 4.66 µM | 3.65 µM | 3.25 µM | 4.14 µM | 3.88 µM | 4.76 µM | 3.12 µM | 2.92 µM | 3.28 µM | 3.13 µM | 3.17 µM | 3.05 µM | 3.04 µM | 11.2 µM | 3.81 µM
CCOC(=O)CC(N1CC1)N1CC1 | > 10 µM | > 10 µM | > 10 µM | > 10 µM | > 10 µM | > 10 µM | > 10 µM | > 10 µM | > 10 µM | > 10 µM | > 10 µM | > 10 µM | > 10 µM | > 10 µM | > 10 µM | > 10 µM | > 10 µM | > 10 µM | > 10 µM
